# Assay results from patent publication US20150290235A1, “USE OF SMALL MOLECULE INHIBITORS/ACTIVATORS IN COMBINATION WITH (DEOXY)NUCLEOSIDE OR (DEOXY)NUCLEOTIDE ANALOGS FOR TREATMENT OF CANCER AND HEMATOLOGICAL MALIGNANCIES OR VIRAL INFECTIONS” (AB SCIENCE, priority 2012, published 2015).
# “And” between values parts separate entries of the source, which are not always exact repeats. Equal entries are not always repeated. “Also recorded” adds a separate entry of the source.
# Assays:
# [1] = test system: Capan-2 pancreatic cancer cells; assay: WST-1 proliferation assay, Capan-2; format: cell-based, human
# Description: (§1) Cancer cell lines: Pancreatic cancer cells lines (Mia Paca-2, Panc-1, BxPC-3 and Capan-2) were obtained from Dr. Juan Iovanna (Inserm, France). Cells were maintained in RPMI (BxPC-3, Capan-2) or DMEM (Mia Paca-2, Panc-1) medium containing glutamax-1 (Lonza), supplemented with 100 U/ml penicillin/100 μg/ml streptomycin, and 10% fetal calf serum (FCS) (AbCys, Lot S02823S1800). Expression of tyrosine kinases was determined by RT-PCR using Hot Star Taq (Qiagen GmbH, Hilden, Germany) in a 2720 Thermal Cycler (Applied Biosystems).
# (§2) Treatment was started with the addition of the respective drug. […] After 72 hours WST-1 reagent was added and incubated with the cells for 4 hours before absorbance measurement at 450 nm in an EL800 Universal Microplate Reader (Bio-Tek Instruments Inc.). Media alone was used as a blank and proliferation in the absence of compounds served as positive control. Results are representative of three/four experiments.
# C2 mastocytoma cells = assay: Alamar Blue cell proliferation assay, C2; format: cell-based, canine
# [2] = test system: Ba/F3 cells expressing human or mouse wild-type c-Kit; conditions: read-out: IC50, blocking stem cell factor-induced proliferation and c-Kit tyrosine phosphorylation; cited from earlier work
# [3] = test system: Mia Paca-2 pancreatic cancer cells; assay: WST-1 proliferation assay, Mia Paca-2; format: cell-based, human; conditions: for response to gemcitabine after pre-incubation with TKI: Mia Paca-2, gemcitabine-resistant, 10 μM TKI
# [4] = test system: Abrams osteosarcoma cells; assay: Alamar Blue cell proliferation assay, Abrams; format: cell-based, canine
# D17 osteosarcoma cells = assay: Alamar Blue cell proliferation assay, D17; format: cell-based, canine
# [5] = test system: Mia Paca-2 pancreatic tumors; assay: Nog-SCID mouse model of human pancreatic cancer; format: in vivo, Nog-SCID mice; conditions: day 56, 28 days of treatment; control 1023
# [6] = test system: Ba/F3 cells expressing PDGFR-α; conditions: read-out: IC50, PDGF-BB-stimulated proliferation and PDGFR-α tyrosine phosphorylation; cited from earlier work
# [7] = test system: CMT27 breast carcinoma cells; assay: Alamar Blue cell proliferation assay, CMT27; format: cell-based, canine
# [8] = test system: Panc-1 pancreatic cancer cells; assay: WST-1 proliferation assay, Panc-1; format: cell-based, human; conditions: Panc-1
# Description: as §1, §2
# [9] = test system: BxPC-3 pancreatic cancer cells; assay: WST-1 proliferation assay, BxPC-3; format: cell-based, human
# Description: as §1, §2
# [10] = test system: canine cancer cell lines other than C2; assay: cells; conditions: Canis lupus familiaris, read-out: IC50 masitinib single agent
# [11] = test system: CMT12 breast carcinoma cells; assay: Alamar Blue cell proliferation assay, CMT12; format: cell-based, canine
# [12] = molecular target: human deoxycytidine kinase (dCK) (Homo sapiens, UniProt P27707); assay: dCK activity with UTP as phosphate donor (PK/LDH enzymatic-coupled assay); conditions: nine dCK substrates
# [13] = Canis lupus familiaris, 72 h, read-out: IC50 masitinib monotherapy
# [14] = Canis lupus familiaris, Breast carcinoma cell, 72 h, read-out: IC50 masitinib monotherapy
# Chain of human deoxycytidine kinase (dCK) (P27707 whole entry): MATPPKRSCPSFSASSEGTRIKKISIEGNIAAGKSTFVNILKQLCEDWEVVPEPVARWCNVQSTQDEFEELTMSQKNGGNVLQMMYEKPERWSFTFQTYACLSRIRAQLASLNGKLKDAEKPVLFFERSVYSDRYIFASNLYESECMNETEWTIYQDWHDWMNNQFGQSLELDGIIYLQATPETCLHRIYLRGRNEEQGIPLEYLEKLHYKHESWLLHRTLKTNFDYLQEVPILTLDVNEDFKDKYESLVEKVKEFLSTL
smiles,measurement,setting,value
"Cc1ccc(NC(=O)c2ccc(CN3CCN(C)CC3)cc2)cc1Nc1nc(-c2cccnc2)cs1 [Masitinib, 4-(4-methylpiperazin-1-ylmethyl)-N-[4-methyl-3-(4-pyridin-3ylthiazol-2-ylamino)phenyl]benzamide]",synergy of masitinib with gemcitabine,"[1]; Capan-2, gemcitabine-sensitive",no synergy
same,IC50,"[1]; Homo sapiens, Capan-2, 72 hours, 1% FCS, read-out: IC50, single agent",5 to 10 µM
same,Sensitization factor (maximum),"C2 mastocytoma cells; C2, gemcitabine with masitinib 0.001 μM",1
same,IC50,C2 mastocytoma cells; [13],30 nM
same,IC50,[2],150 ± 80 nM
same,IC50,"[3]; Homo sapiens, Mia Paca-2, 72 hours, 1% FCS, read-out: IC50, single agent",5 to 10 µM
same,response to gemcitabine after pre-incubation with TKI,[3],able to restore sensitivity to gemcitabine
same,reduction in gemcitabine IC50,"[3]; Mia Paca-2, pre-treated with 5 and 10 μM masitinib (10 μM)",> 400 fold and 400 fold
same,Sensitization factor (maximum),"[4]; Abrams, gemcitabine with masitinib 5 μM",18
same,IC50,[4]; [13],> 10 µM
same,IC50,D17 osteosarcoma cells; [13],> 10 µM
same,Sensitization factor (maximum),"D17 osteosarcoma cells; D17, gemcitabine with masitinib 5 μM",70
same,"Tumor Volume, Median",[5],865 mm^3
same,IC50,[6],300 ± 5 nM
same,Sensitization factor (maximum),"[7]; CMT27, gemcitabine with masitinib 10 μM",>75
same,IC50,[7]; [14],8 µM
same,IC50,"[8]; Homo sapiens, 72 hours, 1% FCS, read-out: IC50, single agent",5 to 10 µM
same,reduction in gemcitabine IC50,[8]; masitinib pre-treatment (10 μM),10 fold
same,synergy of masitinib with gemcitabine,"[9]; BxPC-3, gemcitabine-sensitive",no synergy
same,IC50,"[9]; Homo sapiens, BxPC-3, 72 hours, 1% FCS, read-out: IC50, single agent",5 to 10 µM
same,IC50,[10],5 to 20 µM
same,Sensitization factor (maximum),"[11]; CMT12, gemcitabine with masitinib 10 μM",>10
same,IC50,[11]; [14],8 µM
"COc1cc(Nc2c(C#N)cnc3cc(OCCCN4CCN(C)CC4)c(OC)cc23)c(Cl)cc1Cl [bosutinib, 4-[(2,4-dichloro-5-methoxyphenyl)amino]-6-methoxy-7-[3-(4-methylpiperazin-1-yl)propoxy]quinoline-3-carbonitrile]",activation of dCK (substrate phosphorylation),[12],most active compounds; also recorded: activate dCK
CO[C@@H](C(=O)N1Cc2n[nH]c(NC(=O)c3ccc(N4CCN(C)CC4)cc3)c2C1)c1ccccc1 [danusertib],activation of dCK (substrate phosphorylation),[12],most active compounds; also recorded: activate dCK
"Cc1nc(Nc2ncc(C(=O)Nc3c(C)cccc3Cl)s2)cc(N2CCN(CCO)CC2)n1.O [dasatinib, N-(2-chloro-6-methylphenyl)-2-[[6-[4-(2-hydroxyethyl)-1-piperazinyl]-2-methyl-4-pyrimidinyl]amino]-5-thiazole carboxamide monohydrate]",response to gemcitabine after pre-incubation with TKI,[3],did not result in an increased response
same,cell proliferation with TKI alone,"[3]; Mia Paca-2, imatinib 10 μM, dasatinib >0.1 μM",partially inhibited
"C#Cc1cccc(Nc2ncnc3cc(OCCOC)c(OCCOC)cc23)c1 [erlotinib, N-(3-ethynylphenyl)-6,7-bis(2-methoxyethoxy) quinazolin-4-amine]",activation of dCK (substrate phosphorylation),[12],relatively little or no activity
"COc1cc(Nc2ncc(F)c(Nc3ccc4c(n3)N(COP(=O)(O)O)C(=O)C(C)(C)O4)n2)cc(OC)c1OC [fostamatinib, [6-({5-fluoro-2-[(3,4,5-trimethoxyphenyl)amino]pyrimidin-4-yl}amino)-2,2-dimethyl-3-oxo-2,3-dihydro-4H-pyrido[3,2-b][1,4]oxazin-4-yl]methyl dihydrogen phosphate]",activation of dCK (substrate phosphorylation),[12],relatively little or no activity; also recorded: did not activate dCK
"Cc1ccc(NC(=O)c2ccc(CN3CCN(C)CC3)cc2)cc1Nc1nccc(-c2cccnc2)n1 [imatinib, 4-[(4-methylpiperazin-1-yl)methyl]-N-[4-methyl-3-[(4-pyridin-3-ylpyrimidin-2-yl)amino]phenyl]benzamide]",response to gemcitabine after pre-incubation with TKI,[3],did not result in an increased response
"Cc1cn(-c2cc(NC(=O)c3ccc(C)c(Nc4nccc(-c5cccnc5)n4)c3)cc(C(F)(F)F)c2)cn1 [nilotinib, 4-methyl-N-[3-(4-methyl-1H-imidazol-1-yl)-5-(trifluoromethyl)phenyl]-3-[(4-pyridin-3-ylpyrimidin-2-yl)amino]benzamide]",activation of dCK (substrate phosphorylation),[12],relatively little or no activity; also recorded: did not activate dCK
"CNC(=O)c1cc(Oc2ccc(NC(=O)Nc3ccc(Cl)c(C(F)(F)F)c3)cc2)ccn1 [sorafenib, 4-[4-[[4-chloro-3-(trifluoromethyl)phenyl]carbamoylamino]phenoxy]-N-methyl-pyridine-2-carboxamide]",activation of dCK (substrate phosphorylation),[12],relatively little or no activity; also recorded: did not activate dCK
"CCN(CC)CCNC(=O)c1c(C)[nH]c(/C=C2\C(=O)Nc3ccc(F)cc32)c1C [sunitinib, N-(2-diethylaminoethyl)-5-[(Z)-(5-fluoro-2-oxo-1H-indol-3-ylidene)methyl]-2,4-dimethyl-1H-pyrrole-3-carboxamide]",activation of dCK (substrate phosphorylation),[12],relatively little or no activity; also recorded: did not activate dCK
"Cc1[nH]c(/C=C2\C(=O)Nc3ccc(F)cc32)c(C)c1C(=O)NCCN1CCCC1 [toceranib, (Z)-5-[(5-Fluoro-2-oxo-1,2-dihydro-3H-indol-3-ylidene)methyl]-2,4-dimethyl-N-(2-pyrrolidin-1-ylethyl)-1H-pyrrole-3-carboxamide]",activation of dCK (substrate phosphorylation),[12],relatively little or no activity; also recorded: did not activate dCK
Cc1cc(Nc2cc(N3CCN(C)CC3)nc(Sc3ccc(NC(=O)C4CC4)cc3)n2)[nH]n1 [tozacertib],activation of dCK (substrate phosphorylation),[12],most active compounds; also recorded: activate dCK
